Consider two compounds from patent US20210171464A1 (OLON S.P.A., priority 2017, published 2021).

Data set [1] is described as follows: exposure to atmospheric humidity (stability, hygroscopicity). The format is physicochemical.
Data set [2] relates to dopamine receptors. The settings on record: cited from earlier work.

For the compound `CC(C)COc1ccc(CNC(=O)N(Cc2ccc(F)cc2)C2CCN(C)CC2)cc1.CC(C)COc1ccc(CNC(=O)N(Cc2ccc(F)cc2)C2CCN(C)CC2)cc1.O=C(O)C(O)C(O)C(=O)O` [N-(4-fluorobenzyl)-N-(1-methylpiperidin-4-yl)-N′-(4-(2-methylpropyloxy)-phenylmethyl)carbamide hemitartrate], the hygroscopicity entry in data set [1] was “not hygroscopic”. Moreover, the “stability when exposed to atmospheric humidity” value in data set [1] (exposed to atmospheric humidity) is reported as “stable”. “N-(4-fluorobenzyl)-N-(1-methylpiperidin-4-yl)-N′ -(4-(2-methyl-propyloxy)phenylmethyl)carbamide hemitartrate [pimavanserin hemitartrate]”: in data set [2], the “affinity for dopamine receptors” value was “no affinity”.
